# Data as given in ChEMBL document CHEMBL5230129, “Antibacterial activities with the structure-activity relationship of coumarin derivatives” (2020).
# How the values were obtained:
# Type in all cases: functional
# Micrococcus luteus = experiment: Antibacterial activity against Micrococcus luteus ATCC 9341 assessed as inhibition of bacterial growth incubated for 20 hrs by broth doubling dilution assay
# [1] = test system: Staphylococcus epidermidis; experiment: Antibacterial activity against Staphylococcus epidermidis ATCC 12228 assessed as inhibition of bacterial growth incubated for 20 hrs by broth doubling dilution assay
# Bacillus cereus [2] = experiment: Antibacterial activity against Bacillus cereus ATCC 10702 assessed as inhibition of bacterial growth incubated for 20 hrs by broth doubling dilution assay
# Escherichia coli [3] = experiment: Antibacterial activity against Escherichia coli MTCC 1586 assessed as zone of inhibition incubated overnight by Kirby-Bauer disc diffusion method
# Staphylococcus aureus [4] = experiment: Antibacterial activity against Staphylococcus aureus MTCC 740 assessed as zone of inhibition incubated overnight by Kirby-Bauer disc diffusion method
# Bacillus cereus [5] = experiment: Antibacterial activity against Bacillus cereus MTCC 430 assessed as zone of inhibition incubated overnight by Kirby-Bauer disc diffusion method
# Escherichia coli [6] = experiment: Antibacterial activity against Escherichia coli assessed as inhibition of bacterial growth
# Escherichia coli [7] = experiment: Antibacterial activity against Escherichia coli ATCC 25922 assessed as zone of inhibition incubated for 24 hrs by paper disk method; also: test concentration or dose not given here
# Pseudomonas aeruginosa [8] = experiment: Antibacterial activity against Pseudomonas aeruginosa ATCC 27853 assessed as zone of inhibition incubated for 24 hrs by paper disk method; also: test concentration or dose not given here
# Staphylococcus aureus [9] = experiment: Antibacterial activity against Staphylococcus aureus ATCC 25923 assessed as zone of inhibition incubated for 24 hrs by paper disk method
# Bacillus subtilis [10] = experiment: Antibacterial activity against Bacillus subtilis ATCC 10876 assessed as zone of inhibition incubated for 24 hrs by paper disk method
# Pseudomonas aeruginosa [11] = experiment: Antibacterial activity against Pseudomonas aeruginosa assessed as inhibition of bacterial growth incubated for 24 hrs by broth microdilution assay
# Escherichia coli [12] = experiment: Antibacterial activity against Escherichia coli MTCC 443 assessed as inhibition of bacterial growth incubated for 18 to 20 hrs by broth microdilution assay; details: time 18-20 hrs
# Staphylococcus aureus [13] = experiment: Antibacterial activity against Staphylococcus aureus MTCC 96 assessed as inhibition of bacterial growth incubated for 18 to 20 hrs by broth microdilution assay; details: time 18-20 hrs
# Staphylococcus aureus [14] = experiment: Antibacterial activity against Staphylococcus aureus assessed as inhibition of bacterial growth by broth dilution assay
# Bacillus subtilis [15] = experiment: Antibacterial activity against Bacillus subtilis assessed as inhibition of bacterial growth by broth dilution assay
# Bacillus subtilis [16] = experiment: Antibacterial activity against Bacillus subtilis assessed as inhibition of bacterial growth relative to control
# Escherichia coli [17] = experiment: Antibacterial activity against Escherichia coli assessed as inhibition of bacterial growth relative to control
# Pseudomonas = experiment: Antibacterial activity against Pseudomonas assessed as zone of inhibition; also: test concentration or dose not given here
# Staphylococcus aureus [18] = experiment: Antibacterial activity against Staphylococcus aureus MTCC 3160 assessed as inhibition of bacterial growth by broth micro dilution assay
# Pseudomonas aeruginosa [19] = experiment: Antibacterial activity against Pseudomonas aeruginosa MTCC 1034 assessed as inhibition of bacterial growth by broth micro dilution assay
# Staphylococcus aureus [20] = experiment: Antibacterial activity against Staphylococcus aureus assessed as inhibition of bacterial growth by broth micro dilution assay
# Bacillus = experiment: Antibacterial activity against Bacillus assessed as inhibition of bacterial growth by broth micro dilution assay
# Staphylococcus aureus [21] = experiment: Antibacterial activity against Staphylococcus aureus ATCC-29213 assessed as inhibition of bacterial growth incubated for 16 hrs by agar-well diffusion assay
# Staphylococcus aureus [22] = experiment: Antibacterial activity against Staphylococcus aureus NCTC-7447 assessed as zone of inhibition incubated for 24 hrs by paper disk diffusion assay
# Bacillus cereus [23] = experiment: Antibacterial activity against Bacillus cereus ATCC-14579 assessed as zone of inhibition incubated for 24 hrs by paper disk diffusion assay
# Staphylococcus aureus [24] = experiment: Antibacterial activity against Staphylococcus aureus assessed as zone of inhibition incubated for 24 hrs by agar diffusion assay
# Proteus vulgaris = experiment: Antibacterial activity against Proteus vulgaris assessed as zone of inhibition incubated for 24 hrs by agar diffusion assay
# Bacillus subtilis [25] = experiment: Antibacterial activity against Bacillus subtilis assessed as zone of inhibition incubated for 24 hrs by agar diffusion assay
structure (smiles),measurement,setting,value
Cc1c(O)c(C(=O)CCc2ccccc2)c2oc(=O)cc(-c3ccccc3)c2c1O,MIC,Micrococcus luteus,2 µg/mL
same,MIC,[1],1 µg/mL
same,MIC,Bacillus cereus [2],2 µg/mL
CC[N+](CC)(CC)CCCCCCCCCCCCNCc1cn(Cc2cc(=O)oc3cc4c(cc23)CCC(C)(C)O4)nn1.[Br-],inhibition zone (IZ),Escherichia coli [3],8 mm
same,inhibition zone (IZ),Staphylococcus aureus [4],6 mm
same,inhibition zone (IZ),Bacillus cereus [5],24 mm
COc1ccc(C(=O)C(c2c(O)c3ccccc3oc2=O)N2CCCCC2)cc1 (centres undefined),MIC,Escherichia coli [6],6.25 µg/mL
NCC[C@H](O)C(=O)N[C@@H]1C[C@H](N)[C@@H](O[C@H]2O[C@H](CN)[C@@H](O)[C@H](O)[C@H]2O)[C@H](O)[C@H]1O[C@H]1O[C@H](CO)[C@@H](O)[C@H](N)[C@H]1O [AMIKACIN],inhibition zone (IZ),Escherichia coli [7],17 mm
same,inhibition zone (IZ),Pseudomonas aeruginosa [8],17 mm
same,inhibition zone (IZ),Staphylococcus aureus [9],20 mm
same,inhibition zone (IZ),Bacillus subtilis [10],18 mm
O=C(O)c1cn(C2CC2)c2cc(N3CCNCC3)c(F)cc2c1=O [CIPROFLOXACIN],MIC,Pseudomonas aeruginosa [11],49 µg/mL
same,MIC,Escherichia coli [12],25 µg/mL
same,MIC,Staphylococcus aureus [13],50 µg/mL
same,MIC,Staphylococcus aureus [14],2 µg/mL
same,MIC,Bacillus subtilis [15],2 µg/mL
same,inhibition (INH),Bacillus subtilis [16],100%
same,inhibition (INH),Escherichia coli [17],100%
same,inhibition zone (IZ),Pseudomonas,7.5 mm
same,MIC,Staphylococcus aureus [18],1.6 µg/mL
same,MIC,Pseudomonas aeruginosa [19],1.6 µg/mL
same,MIC,Staphylococcus aureus [20],2 µg/mL
same,MIC,Bacillus,2 µg/mL
same,MIC,Staphylococcus aureus [21],10 µg/mL
O=c1oc2ccccc2c(O)c1-c1ccn(-c2ccccc2)n1,inhibition zone (IZ),Staphylococcus aureus [22],20 mm
same,inhibition zone (IZ),Bacillus cereus [23],16 mm
O=C(/C=C/c1cc(/N=N\c2ccc(Cl)cc2)ccc1O)c1cc2ccccc2oc1=O,inhibition zone (IZ),Staphylococcus aureus [24],>17 mm
same,inhibition zone (IZ),Proteus vulgaris,>17 mm
same,inhibition zone (IZ),Bacillus subtilis [25],>17 mm
